Where a name gives a salt, the structure may show the parent alone. Read-outs that look alike come from different tables or passages of the source.
Key:
[1] = biological target: T1, Na⁺/H⁺ exchanger (Rattus norvegicus, UniProt P26431); test: Inhibition of Na⁺/H⁺ exchanger activity in vitro (change in intracellular pH during acid loading); format: cell-based
T1 construct: using the vascular smooth muscle cells isolated from the rat thoracic aorta; endogenous in cells; host or cells: primary vascular smooth muscle cells isolated from rat thoracic aorta
T1 sequence (P26431 whole entry): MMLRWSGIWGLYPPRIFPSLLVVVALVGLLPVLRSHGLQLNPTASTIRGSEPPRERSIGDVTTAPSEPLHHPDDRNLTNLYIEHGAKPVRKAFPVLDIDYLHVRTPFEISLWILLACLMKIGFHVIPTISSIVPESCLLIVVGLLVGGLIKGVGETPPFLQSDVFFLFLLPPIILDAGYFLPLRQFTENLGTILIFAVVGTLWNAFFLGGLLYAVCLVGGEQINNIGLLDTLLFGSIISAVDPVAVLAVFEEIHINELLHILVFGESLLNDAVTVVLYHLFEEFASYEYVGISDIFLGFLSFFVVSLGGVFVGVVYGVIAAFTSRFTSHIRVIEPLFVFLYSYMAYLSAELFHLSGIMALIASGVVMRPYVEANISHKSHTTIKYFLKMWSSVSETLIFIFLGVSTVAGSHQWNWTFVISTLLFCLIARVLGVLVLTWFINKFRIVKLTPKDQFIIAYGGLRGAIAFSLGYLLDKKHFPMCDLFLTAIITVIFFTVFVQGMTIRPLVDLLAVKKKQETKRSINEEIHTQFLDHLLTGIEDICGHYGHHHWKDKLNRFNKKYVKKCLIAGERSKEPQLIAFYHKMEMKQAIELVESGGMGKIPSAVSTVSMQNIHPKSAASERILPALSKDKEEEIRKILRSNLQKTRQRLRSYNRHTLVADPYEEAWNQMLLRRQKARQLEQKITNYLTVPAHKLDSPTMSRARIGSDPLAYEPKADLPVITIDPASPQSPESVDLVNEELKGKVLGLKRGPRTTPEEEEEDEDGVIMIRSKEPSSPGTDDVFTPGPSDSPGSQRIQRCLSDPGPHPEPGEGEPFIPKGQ
Procedure: That is, inhibition of the Na⁺/H⁺ exchanger activity was evaluated by the change in intracellular pH during acid loading, using the vascular smooth muscle cells isolated from the rat thoracic aorta.

[2] = biological target: T1, Na⁺/H⁺ exchanger; test: Inhibition of Na⁺/H⁺ exchanger activity in vitro (change in cell viability during acid loading); format: cell-based; conditions: minimum effective concentration, vascular smooth muscle cells isolated from the rat thoracic aorta
Procedure: The experiment was performed by modifying the method of Mungre et al. described in Exp. Cell Res., 193, 236 (1991). That is, inhibition of the Na⁺/H⁺ exchanger activity was evaluated by the change in cell viability during acid loading, using the vascular smooth muscle cells isolated from the rat thoracic aorta.
The compounds of the present invention shown in Examples were evaluated by the minimum effective concentration (MEC) for the inhibition of the Na⁺/H⁺ exchanger activity.

[3] = tested on: arrhythmia induced by reperfusion after rat coronary artery occlusion; test: Inhibition of ischemia- and reperfusion-induced arrhythmia in vivo
Procedure: The experiment was performed by modifying the method of Crome et al. described in J. Cardiovasc. […] That is, the prevention of arrhythmia induced by reperfusion after rat coronary artery occlusion was evaluated by the incidence of ventricular tachycardia and ventricular fibrillation as well as the mortality.

[4] = vascular smooth muscle cells isolated from the rat thoracic aorta, change in intracellular pH during acid loading, read-out: IC₅₀

Cn1c(C(=O)NC(=N)N)cc2c(F)cccc21 [Example 55, 4-Fluoro-1-methyl-2-indoloylguanidine hydrochloride]
IC50 [1, 4]: 20 nM

Cn1c(C(=O)N=C(N)N)cc2c(C(F)(F)F)cccc21 [Example 29, 1-Methyl-4-trifluoromethyl-2-indoloylguanidine hydrochloride]
IC50 [1, 4]: 0.9 nM

COc1cccc2c1cc(C(=O)N=C(N)N)n2C [Example 22, 4-Methoxy-1-methyl-2-indoloylguanidine hydrochloride]
IC50 [1, 4]: 2100 nM

NC(N)=NC(=O)c1nc(Cl)c(N2CCCCCC2)nc1N [5-Hexamethylene amiloride, reference compound]
Inhibition of Na^+/H^+ Exchanger MEC [2]: 0.3 µM
IC50 [1, 4]: 140 nM

Cn1c(C(=O)N=C(N)N)cc2ccccc21 [Example 1, 1-methyl-2-indoloylguanidine hydrochloride]
Incidence of Ventricular Fibrillation ([3]; dose 0.1 mg/kg): 10%
Incidence of Ventricular Tachycardia ([3]; dose 0.1 mg/kg): 70%
Mortality ([3]; dose 0.1 mg/kg): 10%
Incidence of Ventricular Fibrillation ([3]; dose 0.3 mg/kg): 0%
Incidence of Ventricular Tachycardia ([3]; dose 0.3 mg/kg): 50%
Mortality ([3]; dose 0.3 mg/kg): 0%
IC50 [1, 4]: 58 nM

CCN(c1nc(N)c(C(=O)NC(=N)N)nc1Cl)C(C)C [EIPA, 5-N-ethyl-N-isopropyl amiloride, reference compound]
Incidence of Ventricular Fibrillation ([3]; dose 0.3 mg/kg): 56%
Incidence of Ventricular Tachycardia ([3]; dose 0.3 mg/kg): 100%
Mortality ([3]; dose 0.3 mg/kg): 44%
Incidence of Ventricular Fibrillation ([3]; dose 1 mg/kg): 0%
Incidence of Ventricular Tachycardia ([3]; dose 1 mg/kg): 43%
Mortality ([3]; dose 1 mg/kg): 0%

Cn1c(C(=O)N=C(N)N)cc2cccc(Cl)c21 [Example 8, 7-Chloro-1-methyl-2-indoloylguanidine hydrochloride]
IC50 [1, 4]: 50 nM

CN(C)c1nc(N)c(C(=O)N=C(N)N)nc1Cl [Dimethyl amiloride, reference compound]
Inhibition of Na^+/H^+ Exchanger MEC [2]: 3.0 µM
IC50 [1]: 600 nM

Cn1c(C(=O)N=C(N)N)cc2c(Cl)ccc(OCCCN)c21 [Example 118, 7-(3-Aminopropoxy)-4-chloro-1-methyl-2-indoloylguanidine hydrochloride]
IC50 [1, 4]: 10 nM

CC(C)Oc1cccc2c1cc(C(=O)NC(=N)N)n2C [Example 58, 4-Isopropoxy-1-methy1-2-indoloylguanidine hydrochloride]
Inhibition of Na^+/H^+ Exchanger MEC [2]: 0.3 µM

Reference: patent publication EP0622356A1, “Indoloylguanidine derivatives as inhibitors of sodium-hydrogen exchange” (SUMITOMO PHARMACEUTICALS COMPANY, LIMITED, priority 1993, dated 1994)
